The source of these data is patent US11306084B2, “Integrin antagonists” (Saint Louis University, priority 2016, dated 2022).

The structures appear in SMILES notation.

What all share (type): binding
Assay [1] concerns the target T1, Recombinant human integrin ανβ1 (Homo sapiens, UniProt P05556+P06756).
T1 construct: purchased R&D Systems 6579-AV
Put plainly: Solid Phase Receptor Assay (SPRA) for ανβ1 function. To be noted: plate-bound human fibronectin; read-out: αvβ1 SPRA IC50. Here is the method: B. Solid Phase Receptor Assay (SPRA) for ανβ1 Function
Wells were washed 3 times with 150 μL TBS+ and then 150 μL of blocking buffer (TBS+ with 1% bovine serum albumin, Sigma A7906) was added. The plate was incubated for 1 hr at 37° C. and then washed 3× with TBS+ buffer. […] Compounds were diluted to 20 μM and 1 μL was added to each well of the plate according to a standard template with each sample repeated in triplicate. After incubation for two hours at room temperature, the plate was washed 3 with 150 μL of TBS+ buffer. To each well, 50 μL of biotinylated anti-αν antibody (R&D Systems, BAF1219) at 1 μg/mL in TBS+/0.1% BSA were added and the plate covered and incubated for 1 hr at room temperature. After washing the plate 3× with 150 μL of TBS+ buffer, 50 μL of streptavidin-conjugated horseradish peroxidase (R&D Systems, DY998) diluted in TBS+ blocking buffer were added to the wells and the plate incubated for 20 min at room temperature. The plate was washed 3× with TBS+ buffer followed by 50 μL of TMB substrate (Sigma, T4444) added to each well in the dark and the plate incubated for 25 min at room temperature. 25 μL of 1.0 M phosphoric acid was added as a stop solution and the plates were read at 450 nm using a Spectramax plate reader.

Assay [2] deals with T2, Recombinant human integrin ανβ3 (Homo sapiens, UniProt P05106+P06756).
T2 construct: purchased R&D Systems 3050-AV
T2 sequence (P06756 31-992 limits assumed): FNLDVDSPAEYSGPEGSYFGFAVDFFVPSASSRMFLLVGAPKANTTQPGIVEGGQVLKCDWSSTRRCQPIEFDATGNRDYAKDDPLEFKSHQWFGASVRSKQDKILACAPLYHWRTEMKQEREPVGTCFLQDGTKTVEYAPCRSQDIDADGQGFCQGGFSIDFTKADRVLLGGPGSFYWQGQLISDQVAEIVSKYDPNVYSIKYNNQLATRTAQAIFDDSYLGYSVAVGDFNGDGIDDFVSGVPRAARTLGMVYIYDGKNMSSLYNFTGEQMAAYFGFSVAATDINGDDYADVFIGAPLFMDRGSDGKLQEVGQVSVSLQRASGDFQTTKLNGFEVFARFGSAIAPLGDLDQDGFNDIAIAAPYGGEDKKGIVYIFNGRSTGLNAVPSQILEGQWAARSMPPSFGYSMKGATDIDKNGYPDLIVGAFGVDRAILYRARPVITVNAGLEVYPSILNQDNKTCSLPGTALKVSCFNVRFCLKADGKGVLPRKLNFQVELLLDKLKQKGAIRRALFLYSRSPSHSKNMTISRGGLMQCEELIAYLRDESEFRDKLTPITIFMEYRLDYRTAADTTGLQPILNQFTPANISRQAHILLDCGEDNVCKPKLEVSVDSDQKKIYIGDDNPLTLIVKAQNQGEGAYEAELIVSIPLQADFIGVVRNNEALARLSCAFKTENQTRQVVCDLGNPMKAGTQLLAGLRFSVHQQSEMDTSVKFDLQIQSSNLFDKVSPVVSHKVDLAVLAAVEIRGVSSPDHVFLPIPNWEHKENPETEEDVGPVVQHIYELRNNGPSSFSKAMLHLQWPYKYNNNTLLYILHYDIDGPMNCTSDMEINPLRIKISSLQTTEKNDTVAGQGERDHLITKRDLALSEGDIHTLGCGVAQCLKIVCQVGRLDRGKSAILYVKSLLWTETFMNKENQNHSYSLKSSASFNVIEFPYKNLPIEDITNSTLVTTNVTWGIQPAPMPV
T2 sequence (P05106 27-718 limits assumed): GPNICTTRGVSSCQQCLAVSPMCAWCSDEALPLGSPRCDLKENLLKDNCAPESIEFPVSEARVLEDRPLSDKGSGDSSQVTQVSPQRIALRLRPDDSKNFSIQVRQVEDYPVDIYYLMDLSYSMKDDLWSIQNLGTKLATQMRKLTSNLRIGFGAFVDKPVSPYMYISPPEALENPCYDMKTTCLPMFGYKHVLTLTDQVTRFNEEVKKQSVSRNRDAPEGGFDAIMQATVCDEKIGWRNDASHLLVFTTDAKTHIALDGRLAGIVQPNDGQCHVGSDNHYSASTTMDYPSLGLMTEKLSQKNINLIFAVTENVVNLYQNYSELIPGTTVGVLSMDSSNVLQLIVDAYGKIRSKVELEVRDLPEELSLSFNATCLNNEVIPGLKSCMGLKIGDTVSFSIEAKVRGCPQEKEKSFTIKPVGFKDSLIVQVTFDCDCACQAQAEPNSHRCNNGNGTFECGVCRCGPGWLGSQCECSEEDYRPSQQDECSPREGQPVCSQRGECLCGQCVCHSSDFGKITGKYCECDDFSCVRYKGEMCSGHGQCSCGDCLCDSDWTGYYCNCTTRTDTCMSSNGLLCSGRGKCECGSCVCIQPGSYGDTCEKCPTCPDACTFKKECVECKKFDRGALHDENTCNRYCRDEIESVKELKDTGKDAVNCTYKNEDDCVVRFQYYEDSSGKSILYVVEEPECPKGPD
Briefly: Solid Phase Receptor Assay (SPRA) for ανβ3 function. The conditions noted are these: plate-bound human vitronectin; read-out: αvβ3 SPRA IC50. Here is the method:
C. Solid Phase Receptor Assay (SPRA) for ανβ3 Function
Wells were washed 3 times with 150 μL TBS+ and then 150 μL of blocking buffer (TBS+ with 1% bovine serum albumin, Sigma A7906) was added. The plate was incubated for 1 hr at 37° C. and then washed 3× with TBS+ buffer. […] Compounds were diluted to 20 μM and then 1 μL was added to each well of the plate according to a standard template with each sample repeated in triplicate. After incubation for two hours at room temperature, the plate was washed 3× with 150 μL of TBS+ buffer. To each well, 50 μL of biotinylated anti-αν antibody (R&D Systems, BAF1219) at 0.5 μg/mL in TBS+/0.1% BSA were added and the plate covered and incubated for 1 hr at room temperature. After washing the plate 3× with 150 μL of TBS+ buffer, 50 μL of streptavidin-conjugated horseradish peroxidase (R&D Systems, DY998) diluted in TBS+ blocking buffer were added to the wells and the plate incubated for 20 min at room temperature. The plate was washed 3× with TBS+ buffer followed by 50 μL of TMB substrate (Sigma, T4444) added to each well in the dark and the plate was incubated for 25 min at room temperature. 25 μL of 1.0 M phosphoric acid was added as a stop solution and the plates were read at 450 nm using a Spectramax plate reader.

Assay [3] concerns the target T3, Recombinant human integrin ανβ8 (Homo sapiens, UniProt P06756+P26012).
T3 construct: purchased R&D Systems 4135-AV
Put plainly: Solid Phase Receptor Assay (SPRA) for ανβ8 function. To be noted: plate-bound human LAP; read-out: αvβ8 SPRA IC50. As to the method:
F. Solid Phase Receptor Assay (SPRA) for ανβ8 Function
Wells were washed 3 times with 150 μL TBS+ and then 150 μL of blocking buffer (TBS+ with 1% bovine serum albumin, Sigma A7906) was added. The plate was incubated for 1 hr at 37° C. and then washed 3× with TBS+. […] Compounds were diluted to 20 μM and 1 μL was added to each well of the plate according to a standard template with each sample repeated in triplicate. After incubation for two hours at room temperature, the plate was washed 3× with 150 μL of TBS+. To each well, 50 μL of biotinylated anti-αν antibody (R&D Systems, BAF1219) at 1 μg/mL in TBS+/0.1% BSA were added and the plate was covered and incubated for 1 hr at room temperature. After washing the plate 3× with 150 μL. of TBS+ buffer, 50 μL of streptavidin-conjugated horseradish peroxidase (R&D Systems, DY998) diluted in TBS+ blocking buffer were added to the wells and the plate incubated for 20 min at room temperature. The plate was washed 3× with TBS+ followed by 50 μL of TMB substrate (Sigma T4444) added to each well in the dark and the plate incubated for 10 min at room temperature. 25 μL of 1.0 M phosphoric acid was added as a stop solution and the plates were read at 450 nm using a Spectramax plate reader.

For assay [4], the target named is T4, Recombinant human integrin α5β1 (Homo sapiens, UniProt P05556+P08648).
T4 construct: purchased R&D Systems 3230-A5
T4 sequence (P08648 42-995 limits assumed): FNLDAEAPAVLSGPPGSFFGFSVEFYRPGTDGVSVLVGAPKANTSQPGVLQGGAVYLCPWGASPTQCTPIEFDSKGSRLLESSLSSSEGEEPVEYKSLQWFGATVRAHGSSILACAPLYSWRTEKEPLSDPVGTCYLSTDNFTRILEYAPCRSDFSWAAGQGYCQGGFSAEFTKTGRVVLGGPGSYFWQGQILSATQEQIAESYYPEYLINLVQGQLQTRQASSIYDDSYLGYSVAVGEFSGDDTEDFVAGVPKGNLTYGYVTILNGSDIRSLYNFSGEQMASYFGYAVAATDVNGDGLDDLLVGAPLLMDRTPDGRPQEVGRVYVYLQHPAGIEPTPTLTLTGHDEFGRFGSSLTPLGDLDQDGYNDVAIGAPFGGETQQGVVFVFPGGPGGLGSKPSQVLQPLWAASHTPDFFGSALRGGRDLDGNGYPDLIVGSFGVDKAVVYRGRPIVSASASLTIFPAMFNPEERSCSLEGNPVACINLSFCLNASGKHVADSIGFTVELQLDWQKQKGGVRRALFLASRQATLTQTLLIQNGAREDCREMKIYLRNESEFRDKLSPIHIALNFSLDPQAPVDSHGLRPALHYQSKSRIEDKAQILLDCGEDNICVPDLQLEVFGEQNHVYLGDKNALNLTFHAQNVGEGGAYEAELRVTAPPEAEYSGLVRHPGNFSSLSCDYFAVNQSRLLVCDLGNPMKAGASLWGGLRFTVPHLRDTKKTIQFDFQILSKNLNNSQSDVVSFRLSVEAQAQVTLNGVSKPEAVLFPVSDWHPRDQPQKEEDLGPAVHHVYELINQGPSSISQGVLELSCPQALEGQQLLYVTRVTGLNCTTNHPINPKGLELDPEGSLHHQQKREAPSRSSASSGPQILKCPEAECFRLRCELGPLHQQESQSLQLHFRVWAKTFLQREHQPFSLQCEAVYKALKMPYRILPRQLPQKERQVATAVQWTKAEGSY
T4 sequence (P05556 21-728 limits assumed): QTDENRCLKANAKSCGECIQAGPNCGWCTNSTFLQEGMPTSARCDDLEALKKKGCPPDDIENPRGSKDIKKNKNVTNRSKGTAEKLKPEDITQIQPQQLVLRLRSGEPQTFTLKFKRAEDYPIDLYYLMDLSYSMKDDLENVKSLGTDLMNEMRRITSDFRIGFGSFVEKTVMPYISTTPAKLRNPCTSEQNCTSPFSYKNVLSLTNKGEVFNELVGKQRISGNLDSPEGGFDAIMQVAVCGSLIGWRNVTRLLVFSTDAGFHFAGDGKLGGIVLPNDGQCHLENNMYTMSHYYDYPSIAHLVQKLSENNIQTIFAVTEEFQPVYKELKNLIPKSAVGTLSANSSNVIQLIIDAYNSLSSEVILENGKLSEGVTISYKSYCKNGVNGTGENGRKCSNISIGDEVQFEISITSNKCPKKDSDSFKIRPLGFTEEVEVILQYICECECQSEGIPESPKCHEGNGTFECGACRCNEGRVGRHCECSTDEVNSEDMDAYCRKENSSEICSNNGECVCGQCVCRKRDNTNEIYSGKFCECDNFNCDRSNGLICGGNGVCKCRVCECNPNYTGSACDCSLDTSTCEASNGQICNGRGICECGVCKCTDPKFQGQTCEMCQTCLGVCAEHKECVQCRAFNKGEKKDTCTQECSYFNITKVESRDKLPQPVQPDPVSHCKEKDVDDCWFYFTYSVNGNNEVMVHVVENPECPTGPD
Briefly: Solid Phase Receptor Assay (SPRA) for α5β1 function. The conditions noted are these: plate-bound human fibronectin. Here is the method:
A. Solid Phase Receptor Assay (SPRA) for α5β1 Function
Wells were washed 3 times with 150 μL TBS+ and then 150 μL of blocking buffer (TBS+ with 1% bovine serum albumin, Sigma A7906) was added. The plate was incubated for 1 hr at 37° C. and then washed 3× with TBS+ buffer. […] Compounds were diluted to 20 μM and then 1 μL was added to each well of the plate according to a standard template with each sample repeated in triplicate. After incubation for two hours at room temperature, the plate was washed 3× with 150 μL of TBS+ buffer. To each well, 50 μL of biotinylated anti-α5 antibody (R&D Systems, BAF1864) at 0.5 μg/mL in TBS+/0.1% BSA were added and the plate covered and incubated for 1 hr at room temperature. After washing the plate 3× with 150 μL of TBS+ buffer, 50 μL of streptavidin-conjugated horseradish peroxidase (R&D Systems, DY998) diluted in TBS+ blocking buffer were added to the wells and the plate incubated for 20 min at room temperature. The plate was washed 3× with TBS+ buffer followed by 50 μL of room temperature TMB substrate (Sigma, T4444) added to each well in the dark and the plate incubated for 25 min at room temperature. 25 μL of 1.0 M phosphoric acid was added as a stop solution and the plates were read at 450 nm using a Spectramax plate reader.

T1 sequence (P06756 31-992 limits assumed): as the sequence (P06756 31-992 limits assumed) above
T1 sequence (P05556 21-728 limits assumed): as the sequence (P05556 21-728 limits assumed) above
T3 sequence (P06756 31-992 limits assumed): as the sequence (P06756 31-992 limits assumed) above
T3 sequence (P26012 43-684 limits assumed): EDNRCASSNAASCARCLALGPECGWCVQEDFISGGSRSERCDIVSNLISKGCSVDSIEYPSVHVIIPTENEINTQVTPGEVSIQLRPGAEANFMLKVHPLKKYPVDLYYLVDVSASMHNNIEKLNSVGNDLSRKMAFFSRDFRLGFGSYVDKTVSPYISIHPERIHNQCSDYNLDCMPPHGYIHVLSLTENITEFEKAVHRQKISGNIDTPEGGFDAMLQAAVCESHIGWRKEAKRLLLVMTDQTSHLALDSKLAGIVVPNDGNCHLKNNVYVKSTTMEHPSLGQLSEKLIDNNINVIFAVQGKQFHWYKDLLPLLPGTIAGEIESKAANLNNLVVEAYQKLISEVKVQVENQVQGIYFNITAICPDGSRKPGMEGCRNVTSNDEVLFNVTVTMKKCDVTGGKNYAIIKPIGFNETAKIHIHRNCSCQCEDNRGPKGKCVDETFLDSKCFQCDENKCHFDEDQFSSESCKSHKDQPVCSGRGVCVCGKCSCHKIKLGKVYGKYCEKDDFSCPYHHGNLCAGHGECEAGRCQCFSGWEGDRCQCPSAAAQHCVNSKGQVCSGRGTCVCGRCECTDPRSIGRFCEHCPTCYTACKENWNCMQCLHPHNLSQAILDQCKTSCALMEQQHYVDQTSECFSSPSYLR

For `Cn1nc(CC(CC(=O)O)c2cc(Br)cc(C(C)(C)C)c2)cc1OCCc1ccc2c(n1)NCCC2` (centres unmarked) [Example 16, 3-(3-bromo-5-tert-butyl-phenyl)-4-(1-methyl-5-(2-(5,6,7,8-tetrahydro-1,8-naphthyridin-2-yl)ethoxy)-1H-pyrazol-3-yl)butanoic Acid], the IC50 came out at 3 nM in assay [1], 7.7 nM in assay [2], 7.8 nM in assay [3] and 30 nM in assay [4].
For `Cn1nc(CC(CC(=O)O)c2cc(C#N)cc(C(C)(C)C)c2)cc1OCCc1ccc2c(n1)NCCC2` (centres unmarked) [Example 17] the same measures were 4.4 nM, 7.4 nM, 6.9 nM and 11 nM.
As to `Cn1nc(CC(CC(=O)O)c2cc(C(C)(C)C)cc(C(C)(C)C)c2)cc1OCCc1ccc2c(n1)NCCC2` (centres unmarked) [Example 18, 3-(3,5-di-tert-butylphenyl)-4-[1-methyl-5-[2-(5,6,7,8-tetrahydro-1,8-naphthyridin-2-yl)ethoxyl]pyrazol-3-yl]butanoic Acid], the IC50 in assay [1] stood at 1.4 nM; in assay [2] it was 84 nM; in assay [3], 85 nM; in assay [4], 6.4 nM.
For `Cn1nc(CC(CC(=O)O)c2cc(Br)cc(C3(C(F)F)CC3)c2)cc1OCCc1ccc2c(n1)NCCC2` (centres unmarked) [Example 19, 3-(3-bromo-5-(1-(difluoromethyl)cyclopropyl)phenyl)-4-(1-methyl-5-(2-(5,6,7,8-tetrahydro-1,8-naphthyridin-2-yl)ethoxy)-1H-pyrazol-3-yl)butanoic Acid] the same measures were 6.3 nM, 6.4 nM, 8.5 nM and 15 nM.
The corresponding values for `Cn1nc(CC(CC(=O)O)c2cc(C#N)cc(C3(C(F)F)CC3)c2)cc1OCCc1ccc2c(n1)NCCC2` (centres unmarked) [Example 20, 3-(3-cyano-5-(1-(difluoromethyl)cyclopropyl)phenyl)-4-(1-methyl-5-(2-(5,6,7,8-tetrahydro-1,8-naphthyridin-2-yl)ethoxy)-1H-pyrazol-3-yl)butanoic Acid] are 3.9 nM, 3.6 nM, 14 nM and 5.5 nM.
For the compound `Cn1nc(CC(CC(=O)O)c2cc(F)cc(C3(C(F)F)CC3)c2)cc1OCCc1ccc2c(n1)NCCC2` (centres unmarked) [Example 21, 3-(3-(1-(difluoromethyl)cyclopropyl)-5-fluorophenyl)-4-(1-methyl-5-(2-(5,6,7,8-tetrahydro-1,8-naphthyridin-2-yl)ethoxy)-1H-pyrazol-3-yl)butanoic Acid], the half-maximal inhibitory concentration (IC50) in assay [1] stood at 3.7 nM; in assay [2], 2.5 nM; in assay [3], 53 nM; in assay [4] it was 12 nM.
As to `Cn1nc(CC(CC(=O)O)c2cc(Cl)cc(C3(C(F)F)CC3)c2)cc1OCCc1ccc2c(n1)NCCC2` (centres unmarked) [Example 22, 3-(3-chloro-5-(1-(difluoromethyl)cyclopropyl)phenyl)-4-(1-methyl-5-(2-(5,6,7,8-tetrahydro-1,8-naphthyridin-2-yl)ethoxy)-1H-pyrazol-3-yl)butanoic Acid], the half-maximal inhibitory concentration (IC50) came to 2.2 nM in assay [1], 3.3 nM in assay [2], 17 nM in assay [3] and 8.8 nM in assay [4].
The corresponding values for `Cn1nc(CC(CC(=O)O)c2cc(C(F)(F)F)cc(C3(C(F)F)CC3)c2)cc1OCCc1ccc2c(n1)NCCC2` (centres unmarked) [Example 23, 3-(3-(1-(difluoromethyl)cyclopropyl)-5-(trifluoromethyl)phenyl)-4-(1-methyl-5-(2-(5,6,7,8-tetrahydro-1,8-naphthyridin-2-yl)ethoxy)-1H-pyrazol-3-yl)butanoic Acid] are 3.8 nM, 7.5 nM, 7.9 nM and 8.8 nM.

For orientation: IC50 means the midpoint of a concentration-inhibition curve.
